Reference: PMC13366377 (Acta Pharmaceutica Sinica. B, 2025)
Positions of bridges follow the written chain, without caps; N, C: chain ends. Non-standard residues stand in square brackets, D forms with d. Residues, ends and D or L forms follow the SMILES beside them. pGlu = O=C1CC[C@@H](C(=O)O)N1

Legend:
α7^EM nAChR = α7^EM nAChR (Homo sapiens, UniProt P36544); experiment: cell-based; assay type: cell-based
α7^EM nAChR S56A = α7^EM nAChR S56A (Homo sapiens, UniProt P36544, S56A, form not given); assay type: cell-based; details: read-out: IC50 at α7^EM nAChR mutant S56A
Chain of α7^EM nAChR S56A (P36544 23-502 S56A, form open): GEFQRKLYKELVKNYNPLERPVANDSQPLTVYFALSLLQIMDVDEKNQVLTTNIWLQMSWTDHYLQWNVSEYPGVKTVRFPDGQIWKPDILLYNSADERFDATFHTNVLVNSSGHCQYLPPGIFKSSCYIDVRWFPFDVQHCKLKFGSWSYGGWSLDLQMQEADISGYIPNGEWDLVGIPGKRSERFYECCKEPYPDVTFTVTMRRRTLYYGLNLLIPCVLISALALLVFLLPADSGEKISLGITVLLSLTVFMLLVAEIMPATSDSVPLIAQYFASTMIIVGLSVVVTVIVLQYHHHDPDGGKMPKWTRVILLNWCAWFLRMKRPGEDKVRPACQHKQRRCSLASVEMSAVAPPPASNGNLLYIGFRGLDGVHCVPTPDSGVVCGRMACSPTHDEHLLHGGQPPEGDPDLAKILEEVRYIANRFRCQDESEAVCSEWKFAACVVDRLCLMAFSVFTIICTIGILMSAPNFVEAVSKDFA

α7^EM nAChR Q139E = α7^EM nAChR Q139E (Homo sapiens, UniProt P36544, Q139E, form not given); assay type: cell-based; details: read-out: IC50 at α7^EM nAChR mutant Q139E
Chain of α7^EM nAChR Q139E (P36544 23-502 Q139E, form open): as the sequence (P36544 23-502 S56A, form open) above, with A34S, Q117E counted along it

α7^EM nAChR E184Q = α7^EM nAChR E184Q (Homo sapiens, UniProt P36544, E184Q, form not given); assay type: cell-based; details: read-out: IC50 at α7^EM nAChR mutant E184Q
Chain of α7^EM nAChR E184Q (P36544 23-502 E184Q, form open): as the sequence (P36544 23-502 S56A, form open) above, with A34S, E162Q counted along it

α7^EM nAChR R208A = α7^EM nAChR R208A (Homo sapiens, UniProt P36544, R208A, form not given); assay type: cell-based; details: read-out: IC50 at α7^EM nAChR mutant R208A
Chain of α7^EM nAChR R208A (P36544 23-502 R208A, form open): as the sequence (P36544 23-502 S56A, form open) above, with A34S, R186A counted along it

hα7 nAChR = hα7 nAChR (Homo sapiens, UniProt P36544); experiment: cell-based
Chain of hα7 nAChR (P36544 23-502): as the sequence (P36544 23-502 S56A, form open) above, with A34S counted along it

in vitro = details: human, serum

Chain of α7^EM nAChR (P36544 23-233 limits assumed): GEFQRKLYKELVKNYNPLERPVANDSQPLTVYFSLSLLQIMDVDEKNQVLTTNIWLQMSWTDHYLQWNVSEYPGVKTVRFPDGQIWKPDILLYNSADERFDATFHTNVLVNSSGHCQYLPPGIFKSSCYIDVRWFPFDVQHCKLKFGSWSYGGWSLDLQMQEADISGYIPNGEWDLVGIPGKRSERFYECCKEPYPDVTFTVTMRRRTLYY

N=C(N)NCCC[C@@H]1NC(=O)[C@@H](NC(=O)CNC(=O)[C@@H]2CCCN2C(=O)[C@@H](N)CCC(N)=O)CSSC[C@@H](C(N)=O)NC(=O)[C@H](Cc2c[nH]c3ccccc23)NC(=O)[C@H](CCCNC(=N)N)NC(=O)[C@H](CCCNC(=N)N)NC(=O)[C@H](Cc2c[nH]c3ccccc23)NC(=O)[C@H](Cc2c[nH]c3ccccc23)NC1=O [[S8R]SS1] (H-QPGCRWWRRWC-NH2; disulfide 4-11)
IC50 (α7^EM nAChR): 659 ± 92.9 nM | IC50 (α7^EM nAChR S56A): 234 ± 36.1 nM | IC50 (α7^EM nAChR Q139E): 852 ± 66.3 nM | IC50 (α7^EM nAChR E184Q): 555 ± 99.9 nM | IC50 (α7^EM nAChR R208A): 1930 ± 196 nM

N=C(N)NCCC[C@@H]1NC(=O)[C@@H](NC(=O)CNC(=O)[C@@H]2CCCN2C(=O)[C@@H](N)CCC(N)=O)CSSC[C@@H](C(N)=O)NC(=O)[C@H](Cc2c[nH]c3ccccc23)NC(=O)[C@H](CCCNC(=N)N)NC(=O)[C@H](CO)NC(=O)[C@H](CCCNC(=N)N)NC(=O)[C@H](Cc2c[nH]c3ccccc23)NC1=O [[W7R]SS1] (H-QPGCRWRSRWC-NH2; disulfide 4-11)
potency at hα7 nAChR relative to parent peptide (in words) (hα7 nAChR): no significant differences

N=C(N)NCCC[C@@H]1NC(=O)[C@@H](NC(=O)CNC(=O)[C@@H]2CCCN2C(=O)[C@@H](N)CCCNC(=N)N)CSSC[C@@H](C(N)=O)NC(=O)[C@H](Cc2c[nH]c3ccccc23)NC(=O)[C@H](CCCNC(=N)N)NC(=O)[C@H](CCCNC(=N)N)NC(=O)[C@H](Cc2c[nH]c3ccccc23)NC(=O)[C@H](Cc2c[nH]c3ccccc23)NC1=O [[Q1R, S8R]SS1] (H-RPGCRWWRRWC-NH2; disulfide 4-11)
IC50 (α7^EM nAChR): 136 ± 27.8 nM | increase in potency versus [S8R]SS1 at α7^EM nAChR (α7^EM nAChR): 4.8 fold

N=C(N)NCCC[C@@H]1NC(=O)[C@@H](NC(=O)CNC(=O)[C@@H]2CCCN2C(=O)[C@@H](N)CCC(=O)O)CSSC[C@@H](C(N)=O)NC(=O)[C@H](Cc2c[nH]c3ccccc23)NC(=O)[C@H](CCCNC(=N)N)NC(=O)[C@H](CCCNC(=N)N)NC(=O)[C@H](Cc2c[nH]c3ccccc23)NC(=O)[C@H](Cc2c[nH]c3ccccc23)NC1=O [[Q1E, S8R]SS1] (H-EPGCRWWRRWC-NH2; disulfide 4-11)
IC50 (α7^EM nAChR): 364 ± 103 nM | increase in potency versus [S8R]SS1 at α7^EM nAChR (α7^EM nAChR): 1.8 fold

N=C(N)NCCC[C@@H]1NC(=O)[C@@H](NC(=O)CNC(=O)[C@@H]2CCCN2C(=O)[C@@H](N)CCCNC(=N)N)CSSC[C@@H](C(N)=O)NC(=O)[C@H](Cc2c[nH]c3ccccc23)NC(=O)[C@H](CCCNC(=N)N)NC(=O)[C@H](CO)NC(=O)[C@H](Cc2c[nH]c3ccccc23)NC(=O)[C@H](Cc2c[nH]c3ccccc23)NC1=O [[Q1R]SS1] (H-RPGCRWWSRWC-NH2; disulfide 4-11)
potency at hα7 nAChR relative to parent peptide (in words) (hα7 nAChR): no significant differences

N=C(N)NCCC[C@@H]1NC(=O)[C@@H](NC(=O)CN)CSSC[C@@H](C(N)=O)NC(=O)[C@H](Cc2c[nH]c3ccccc23)NC(=O)[C@H](CCCNC(=N)N)NC(=O)[C@H](CCCNC(=N)N)NC(=O)[C@H](Cc2c[nH]c3ccccc23)NC(=O)[C@H](Cc2c[nH]c3ccccc23)NC1=O [[ΔQP, S8R]SS1] (H-GCRWWRRWC-NH2; disulfide 2-9)
IC50 (hα7 nAChR): 49.2 nM | increase in potency compared to SS1 (hα7 nAChR): ~29 fold | remaining at 24 h (in vitro): 14%

N=C(N)NCCC[C@@H]1NC(=O)[C@@H](NC(=O)CNC(=O)[C@@H]2CCCN2C(=O)[C@@H](N)CCC(N)=O)CSSC[C@@H](C(N)=O)NC(=O)[C@H](Cc2c[nH]c3ccccc23)NC(=O)[C@H](CCCNC(=N)N)NC(=O)[C@H](CCCNC(=N)N)NC(=O)[C@H](Cc2c[nH]c3ccccc23)NC(=O)[C@H](CCCNC(=N)N)NC1=O [[W6R, S8R]SS1] (H-QPGCRRWRRWC-NH2; disulfide 4-11)
potency of [S8R]SS1 analogues at hα7 nAChR relative to [S8R]SS1 (in words) (hα7 nAChR; n = 8-10): maintained potency

N=C(N)NCCC[C@@H]1NC(=O)[C@@H](NC(=O)CNC(=O)[C@@H]2CCCN2C(=O)[C@@H](N)CCC(N)=O)CSSC[C@@H](C(N)=O)NC(=O)[C@H](Cc2c[nH]c3ccccc23)NC(=O)[C@H](CCCNC(=N)N)NC(=O)[C@H](CO)NC(=O)[C@H](Cc2c[nH]c3ccccc23)NC(=O)[C@H](CCCNC(=N)N)NC1=O [[W6R]SS1] (H-QPGCRRWSRWC-NH2; disulfide 4-11)
potency at hα7 nAChR relative to parent peptide (in words) (hα7 nAChR): completely lost potency

N=C(N)NCCC[C@@H]1NC(=O)[C@@H](NC(=O)CNC(=O)[C@H](CCCNC(=N)N)NC(=O)[C@@H](N)CCC(N)=O)CSSC[C@@H](C(N)=O)NC(=O)[C@H](Cc2c[nH]c3ccccc23)NC(=O)[C@H](CCCNC(=N)N)NC(=O)[C@H](CO)NC(=O)[C@H](Cc2c[nH]c3ccccc23)NC(=O)[C@H](Cc2c[nH]c3ccccc23)NC1=O [[P2R]SS1] (H-QRGCRWWSRWC-NH2; disulfide 4-11)
potency at hα7 nAChR relative to parent peptide (in words) (hα7 nAChR): no significant differences

N=C(N)NCCC[C@@H]1NC(=O)[C@@H](NC(=O)CNC(=O)[C@@H]2CCCN2C(=O)[C@@H]2CCC(=O)N2)CSSC[C@@H](C(N)=O)NC(=O)[C@H](Cc2c[nH]c3ccccc23)NC(=O)[C@H](CCCNC(=N)N)NC(=O)[C@H](CCCNC(=N)N)NC(=O)[C@H](Cc2c[nH]c3ccccc23)NC(=O)[C@H](Cc2c[nH]c3ccccc23)NC1=O [[Q1Pyr, S8R]SS1] ([pGlu]PGCRWWRRWC-NH2; disulfide 4-11)
IC50 (α7^EM nAChR): 1390 ± 260 nM

N=C(N)NCCC[C@@H]1NC(=O)[C@H](CO)NC(=O)[C@H](Cc2c[nH]c3ccccc23)NC(=O)[C@H](Cc2c[nH]c3ccccc23)NC(=O)[C@H](CCCNC(=N)N)NC(=O)[C@@H](NC(=O)[C@H](CCCNC(=N)N)NC(=O)[C@@H]2CCCN2C(=O)[C@@H](N)CCC(N)=O)CSSC[C@@H](C(N)=O)NC(=O)[C@H](Cc2c[nH]c3ccccc23)NC1=O [[G3R]SS1] (H-QPRCRWWSRWC-NH2; disulfide 4-11)
potency at hα7 nAChR relative to parent peptide (in words) (hα7 nAChR): no significant differences
